# Patent US10894807B2 (Siemens Medical Solutions USA, Inc., priority 2011, dated 2021)
# Molecular target: human PSMA (Homo sapiens (Human), UniProt Q04609)
# Experiment: Enzymatic assay for in vitro evaluation of PSMA inhibitors (fluorescent assay of PSMA activity, NAAG substrate, OPA detection of glutamate)
# Assay type: biochemical
# Conditions: not given
# Sequence of human PSMA (Q04609 whole entry): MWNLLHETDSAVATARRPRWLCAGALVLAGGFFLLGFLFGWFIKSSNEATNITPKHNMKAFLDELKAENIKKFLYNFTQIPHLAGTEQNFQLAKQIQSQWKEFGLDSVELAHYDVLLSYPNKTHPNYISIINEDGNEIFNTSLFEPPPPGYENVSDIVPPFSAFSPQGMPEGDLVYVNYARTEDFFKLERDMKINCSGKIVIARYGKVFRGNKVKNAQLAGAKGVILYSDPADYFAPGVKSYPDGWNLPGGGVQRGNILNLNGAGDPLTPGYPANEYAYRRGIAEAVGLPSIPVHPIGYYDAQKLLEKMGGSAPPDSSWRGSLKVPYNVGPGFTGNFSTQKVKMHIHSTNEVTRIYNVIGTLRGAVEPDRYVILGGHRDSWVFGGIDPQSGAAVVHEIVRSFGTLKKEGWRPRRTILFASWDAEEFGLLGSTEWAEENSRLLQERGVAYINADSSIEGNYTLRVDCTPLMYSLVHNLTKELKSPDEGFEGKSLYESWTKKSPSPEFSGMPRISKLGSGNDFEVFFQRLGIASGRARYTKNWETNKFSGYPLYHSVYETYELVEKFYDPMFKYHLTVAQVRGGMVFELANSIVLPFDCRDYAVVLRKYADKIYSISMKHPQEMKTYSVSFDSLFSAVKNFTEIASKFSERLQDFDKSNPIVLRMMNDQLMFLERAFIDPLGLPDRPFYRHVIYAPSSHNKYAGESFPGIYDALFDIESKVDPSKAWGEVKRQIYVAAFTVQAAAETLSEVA
row,SMILES,Ki [nM]
1,"CN(C(=O)N[C@@H](CCC(=O)O)C(=O)O)[C@@H](CCCCNC(=O)c1ccc(F)nc1)C(=O)O [P133, (S)-2-(3-((S)-1-Carboxy-5-(6-fluoronicotinamide)pentyl)-3-methylureido)-pentanedioic Acid]",125

# Same assay, conditions: compound at 10 μM
row,SMILES,PSMA Blkg % (10 μM) [%]
1,"CCC1(CC)C(=O)N([C@@H](CCCCNC(=O)c2ccc(F)nc2)C(=O)O)C(=O)N([C@@H](CCC(=O)O)C(=O)O)C1=O [P113, (S)-2-(3-((S)-1-Carboxy-5-(6-fluoronicotinamido)pentyl)-5,5-diethyl-2,4,6-trioxotetrahydropyrimidin-1(2H)-yl)pentanedioic Acid]",11
2,"CCC1(CC)C(=O)N([C@@H](CCCCNC/C=C/c2ccc(-n3cc(CCCF)nn3)cc2)C(=O)O)C(=O)N([C@@H](CCC(=O)O)C(=O)O)C1=O [P114, (S)-2-(3-((S)-1-Carboxy-5-((E)-3-(4-(4-(3-fluoropropyl)-1H-1,2,3-triazol-1-yl)phenyl)allylamino)pentyl)-5,5-diethyl-2,4,6-trioxotetrahydropyrimidin-1(2H)-yl)pentanedioic Acid]",8
3,O=C(O)CC[C@H](NC(=O)C[C@H](NC(=O)CCCc1ccc(-n2cc(CCCF)nn2)cc1)C(=O)O)C(=O)O [P115],36
4,"O=C(O)CC[C@H](NC(=O)C[C@H](NC(=O)CCCNC(=O)OCc1ccccc1)C(=O)O)C(=O)O [P116, (10S,14S)-3,8,12-Trioxo-1-phenyl-2-oxa-4,9,13-triazahexadecane-10,14,16-tricarboxylic Acid]",31
5,O=C(O)CC[C@@H](C(=O)O)N1C(=O)NC(=O)/C(=C(/O)CCC(NC(=O)OCC2c3ccccc3-c3ccccc32)C(=O)O)C1=O (stereo partly drawn) [P117],18
6,"CCC1(CC)C(=O)N([C@@H](CCCCNC(=O)OCc2ccc([N+](=O)[O-])cc2)C(=O)O)C(=O)N([C@@H](CCC(=O)O)C(=O)O)C1=O [P118, (S)-2-(3-((S)-1-Carboxy-5-((4-nitrobenzyloxy)carbonylamino)pentyl)-5,5-diethyl-2,4,6-trioxotetrahydropyrimidin-1(2H)-yl)pentanedioic Acid]",13
7,"O=C(O)CC[C@H](NC(=O)C[C@H](NC(=O)CCCCNC(=O)c1ccccc1)C(=O)O)C(=O)O [P119, (S)-2-((S)-3-(5-Benzamidopentanamido)-3-carboxypropanamido)pentanedioic Acid]",26
8,"O=C(O)CC[C@@H](C(=O)O)N1C(=O)CC(=O)N([C@@H](CCCCNC(=O)OCc2ccc([N+](=O)[O-])cc2)C(=O)O)C1=O [P120, (S)-2-(3-((S)-1-Carboxy-5-((4-nitrobenzyloxy)carbonylamino)pentyl)-2,4,6-trioxotetrahydropyrimidin-1(2H)-yl)pentanedioic Acid]",15
9,"NC(=O)CCC(C(=O)O)n1cc(COc2ccc3ccc(=O)oc3c2)nn1 (stereo not drawn) [P121, 5-Amino-5-oxo-2-(4-(((2-oxo-2H-chromen-7-yl)oxy)methyl)-1H-1,2,3-triazol-1-yl)pentanoic Acid]",7
10,"COc1ccc(CCCC(=O)N[C@@H](CC(=O)N[C@@H](CCC(=O)O)C(=O)O)C(=O)O)cc1 [P122, (S)-2-((S)-3-Carboxy-3-(4-(4-methoxyphenyl)butanamido)propanamido)-pentanedioic Acid]",18
11,"O=C(O)CC[C@H](NC(=O)C[C@H](NC(=O)CCCc1ccc([N+](=O)[O-])cc1)C(=O)O)C(=O)O [P123, (S)-2-((S)-3-Carboxy-3-(4-(4-nitrophenyl)butanamido)propanamido)pentanedioic Acid]",17
12,O=C(O)CC[C@@H](C(=O)O)N1C(=O)CC(=O)NC1=O [P126],12
13,"Nc1ccc(/C(O)=C2\C(=O)NC(=O)N([C@@H](CCC(=O)O)C(=O)O)C2=O)cc1 [P127, (S,Z)-2-(5-((4-Aminophenyl)(hydroxy)methylene)-2,4,6-trioxotetrahydropyrimidin-1(2H)-yl)pentanedioic Acid]",10
14,"O=C(O)CC[C@@H](C(=O)O)N1C(=O)CC(=O)N([C@@H](CCCCNS(=O)(=O)c2ccc([N+](=O)[O-])cc2)C(=O)O)C1=O [P128, (S)-2-(3-((S)-1-Carboxy-5-(4-nitrophenylsulfonamido)pentyl)-2,4,6-trioxotetrahydropyrimidin-1(2H)-yl)pentanedioic Acid]",12
15,"O=C(O)CC[C@@H](C(=O)O)N1C(=O)CC(=O)N([C@@H](CCCCNC(=O)NCc2ccccc2)C(=O)O)C1=O [P129, (S)-2-(3-((S)-5-(3-Benzylureido)-1-carboxypentyl)-2,4,6-trioxotetrahydropyrimidin-1(2H)-yl)pentanedioic Acid]",10
16,"CCC1(CC)C(=O)N([C@@H](CCCCNC(=S)Nc2ccc(-n3cc(CCCF)nn3)cc2)C(=O)O)C(=O)N([C@@H](CCC(=O)O)C(=O)O)C1=O [P130, (S)-2-(3-((S)-1-Carboxy-5-(3-(4-(4-(3-fluoropropyl)-1H-1,2,3-triazol-1-yl)phenyl)thioureido)pentyl)-5,5-diethyl-2,4,6-trioxotetrahydropyrimidin-1 (2H)-yl)pentanedioic Acid]",10

row,SMILES,PSMA Blkg % (10 μM) [%]
1,"O=C(O)CC[C@H](NC(=O)CN(O)C(=O)CCCCNC(=O)c1ccccc1)C(=O)O [P131, (S)-2-(2-(5-Benzamido-N-hydroxypentanamido)acetamido)pentanedioic Acid]",6
2,"COc1ccc(CCCC(=O)N(O)CC(=O)N[C@@H](CCC(=O)O)C(=O)O)cc1 [P132, (S)-2-(2-(N-Hydroxy-4-(4-methoxyphenyl)butanamido)acetamido)pentanedioic Acid]",17
3,"CN(C(=O)N[C@@H](CCC(=O)O)C(=O)O)[C@@H](CCCCNC(=O)c1ccc(F)nc1)C(=O)O [P133, (S)-2-(3-((S)-1-Carboxy-5-(6-fluoronicotinamide)pentyl)-3-methylureido)-pentanedioic Acid]",95
4,"Nc1ccc(CCCC(=O)N(O)CC(=O)N[C@@H](CCC(=O)O)C(=O)O)cc1 [P134, (S)-2-(2-(4-(4-Aminophenyl)-N-hydroxybutanamido)acetamido)pentanedioic Acid]",37
5,"O=C(O)CC[C@@H](NC(=O)N(O)[C@@H](CC(=O)NCc1ccccc1)C(=O)O)C(=O)O [P135, (R)-2-(3-((S)-3-(Benzylamino)-1-carboxy-3-oxopropyl)-3-hydroxyureido)pentanedioic Acid]",42
6,[N-]=[N+]=Nc1ccc(CCCC(=O)NC(Cc2cn(C(CCC(=O)O)C(=O)O)nn2)C(=O)O)cc1 (stereo not drawn) [P137],3
7,"CCC1(CC)C(=O)N([C@@H](CCCCNC(=O)OCc2ccccc2)C(=O)O)C(=S)N([C@@H](CCC(=O)O)C(=O)O)C1=O [P138, (S)-2-(3-((S)-5-(Benzyloxycarbonylamino)-1-carboxypentyl)-5,5-diethyl-4,6-dioxo-2-thioxotetrahydropyrimidin-1(2H)-yl)pentanedioic Acid]",6
8,"O=C(O)CC[C@H](NC(=O)N(O)[C@@H](CCCNC(=O)OCc1ccccc1)C(=O)O)C(=O)O [P139, (8S,12S)-9-Hydroxy-3,10-dioxo-1-phenyl-2-oxa-4,9,11-triazatetradecane-8,12,14-tricarboxylic Acid]",16
9,"O=C(O)CC[C@@H](C(=O)O)N(O)C(=O)N[C@@H](CCCCNC(=O)OCc1ccccc1)C(=O)O [P140, (9S,13S)-12-Hydroxy-3,11-dioxo-1-phenyl-2-oxa-4,10,12-triazapentadecane-9,13,15-tricarboxylic Acid]",64
10,"O=C(O)CC[C@H](NC(=O)CN(O)C(=O)CCCNC(=O)c1ccc(-n2cc(CCCF)nn2)cc1)C(=O)O [P141, (S)-2-(2-(4-(4-(4-(3-Fluoropropyl)-1H-1,2,3-triazol-1-yl)benzamido)-N-hydroxybutanamido)acetamido)pentanedioic Acid]",1
11,"O=C(O)CC[C@H](NC(=O)CN(O)C(=O)CCCNC(=O)Cn1cc(CCCF)nn1)C(=O)O [P142, (S)-2-(2-(4-(2-(4-(3-Fluoropropyl)-1H-1,2,3-triazol-1-yl)acetamido)-N-hydroxybutanamido)acetamido)pentanedioic Acid]",5
12,"CN(C(=S)N[C@@H](CCC(=O)O)C(=O)O)[C@@H](CCCCNC(=O)OCc1ccccc1)C(=O)O [P143, (9S,13S)-10-Methyl-3-oxo-1-phenyl-1-thioxo-2-oxa-4,10,12-triazapentadecane-9,13,15-tricarboxylic Acid]",15
13,"O=C(O)CC[C@H](NC(=O)CN(O)C(=O)CCc1ccc(-n2cc(CCCF)nn2)cc1)C(=O)O [P144, (S)-2-(2-(3-(4-(4-(3-Fluoropropyl)-1H-1,2,3-triazol-1-yl)phenyl)-N-hydroxypropanamido)acetamido)pentanedioic Acid]",7
14,"O=C(O)CC[C@H](NC(=S)CN(O)C(=O)CCCc1ccc(-n2cc(CCCF)nn2)cc1)C(=O)O [P145, (S)-2-(2-(4-(4-(4-(3-Fluoropropyl)-1H-1,2,3-triazol-1-yl)phenyl)-N-hydroxy-butanamido)ethanethioamido)pentanedioic Acid]",7
15,"O=C(O)CC[C@H](NC(=S)N(O)[C@@H](CCCCNC(=O)c1ccc(-n2cc(CCCF)nn2)cc1)C(=O)O)C(=O)O [P146, (S)-2-(3-((S)-1-Carboxy-5-(4-(4-(3-fluoropropyl)-1H-1,2,3-triazol-1-yl)benzamido)pentyl)-3-hydroxythioureido)pentanedioic Acid]",45
16,"O=C(O)CC[C@@H](C(=O)O)N(O)C(=O)N[C@@H](CCCCNC(=O)CCCc1ccc(-n2cc(CCCF)nn2)cc1)C(=O)O [P147, (S)-2-(3-((S)-1-Carboxy-5-(4-(4-(4-(3-fluoropropyl)-1H-1,2,3-triazol-1-yl)phenyl)butanamido)pentyl)-1-hydroxyureido)pentanedioic Acid]",69
